Results taken from patent US9828350B2, “5,6-dihydro-2H-[1,4]oxazin-3-yl-amine derivatives useful as inhibitors of beta-secretase (BACE)” (Janssen Pharmaceutica NV, priority 2010, dated 2017).

Legend:
[1] = biological target: recombinant BACE1 protein (Homo sapiens, UniProt P56817); experiment: Biochemical FRET based assay; conditions: recombinant BACE1 1 μg/ml, 120 minutes at room temperature, pH 5.0; for IC50: read-out: Biochemical FRET based assay pIC50 (converted)
Procedure, shortened: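 Recombinant BACE1 (1 μg/ml final) was incubated 120 minutes at room temperature with […] Mca/Dnp-labelled 13-mer APP Swedish-mutant peptide in 40 mM citrate pH 5.0, 0.04% PEG, 4% DMSO, with or without compound. Cleavage was measured as fluorescence (ex 320/em 405 nm), given as RFU difference between T120 and T0.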

Abeta total = experiment: Cellular αLisa assay in SKNBE2 cells, Abeta total; assay type: cell-based, human; conditions: incubated for 18 hours; for IC50: Homo sapiens, SKNBE2, 18 h, read-out: Cellular αLisa assay in SKNBE2 cells Abetatotal pIC50 (converted)
Procedure, shortened: (§1)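 Human neuroblastoma SKNBE2 cells expressing wild-type hAPP695 were incubated with compound for 18 hours. Secreted Abeta total and Abeta 1-42 in medium were quantified by sandwich αLisa: biotinylated AbN/25 on streptavidin donor beads with Ab4G8 (total) or cAb42/26 (1-42) acceptor beads. Light emission read after 1 hour (ex 650 nm, em 615 nm).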

Abeta 1-42 = experiment: Cellular αLisa assay in SKNBE2 cells, Abeta 1-42; assay type: cell-based, human; conditions: incubated for 18 hours; for IC50: Homo sapiens, SKNBE2, 18 h, read-out: Cellular αLisa assay in SKNBE2 cells Abeta 42 pIC50 (converted)
Procedure, shortened: as §1

Aβ42 = experiment: Demonstration of in vivo efficacy, brain Aβ42 lowering (ELISA); conditions: mouse brain
Excerpt: (§2) To determine whether acute administration of an Aβ42 peptide lowering agent would reduce Aβ peptide levels in vivo, non-transgenic rodents, e.g. mice or rats were used. Animals treated with the Aβ peptide lowering agent were examined and compared to those untreated or treated with vehicle and brain levels of soluble Aβ42 and total Aβ were quantitated by standard techniques, for example, using ELISA.
(§3) A typical protocol for measuring Aβ42 lowering in vivo is shown but it is only one of many variations that could be used to optimize the levels of detectable Aβ. For example, Aβ peptide lowering compounds were formulated in 20% hydroxypropyl 3 cyclodextrin. The Aβ peptide lowering agents were administered as a single oral dose (p.o.) or a single subcutaneous dose (s.c.) to overnight fasted animals. After a certain time, usually 2 or 4 h (as indicated in Table 19), the animals were sacrificed and Aβ42 levels were analysed.
(§4) Blood was collected by decapitation and exsanguinations in EDTA-treated collection tubes. Blood was centrifuged at 1900 g for 10 minutes (min) at 4° C. and the plasma recovered and flash frozen for later analysis. The brain was removed from the cranium and hindbrain. The cerebellum was removed and the left and right hemisphere were separated. The left hemisphere was stored at −18° C. for quantitative analysis of test compound levels. The right hemisphere was rinsed with phosphate-buffered saline (PBS) buffer and immediately frozen on dry ice and stored at −80° C. until homogenization for biochemical assays.
(§5) Mouse brains from non-transgenic animals were resuspended in 8 volumes of 0.4% DEA (diethylamine)/50 mM NaCl containing protease inhibitors (Roche-11873580001 or 04693159001) per gram of tissue, e.g. for 0.158 g brain, add 1.264 ml of 0.4% DEA. All samples were homogenized in the FastPrep-24 system (MP Biomedicals) using lysing matrix D (MPBio #6913-100) at 6 m/s for 20 seconds. Homogenates were centrifuged at 221.300×g for 50 min. The resulting high speed supernatants were then transferred to fresh eppendorf tubes. Nine parts of supernatant were neutralized with 1 part 0.5 M Tris-HCl pH 6.8 and used to quantify Aβtotal and Aβ42.
(§6) To quantify the amount of Aβtotal and Aβ42 in the soluble fraction of the brain homogenates, Enzyme-Linked-Immunosorbent-Assays were used. Briefly, the standards (a dilution of synthetic Aβ1-40 and Aβ1-42, Bachem) were prepared in 1.5 ml Eppendorf tube in Ultraculture, with final concentrations ranging from 10000 to 0.3 pg/ml. The samples and standards were co-incubated with HRPO-labelled N-terminal antibody for Aβ42 detection and with the biotinylated mid-domain antibody 4G8 for Aβtotal detection. […] The plate was allowed to incubate overnight at 4° C. in order to allow formation of the antibody-amyloid complex. Following this incubation and subsequent wash steps the ELISA for Aβ42 quantification was finished by addition of Quanta Blu fluorogenic peroxidase substrate according to the manufacturer's instructions (Pierce Corp., Rockford, Ill.). A reading was performed after 10 to 15 min (excitation 320 nm/emission 420 nm).

Aβtotal = experiment: Demonstration of in vivo efficacy, brain Aβtotal lowering (ELISA); conditions: mouse brain
Excerpt: as §2, §3, §4, §5, §6
For Aβtotal detection, a Streptavidine-Peroxidase-Conjugate was added, followed 60 min later by an additional wash step and addition of Quanta Blu fluorogenic peroxidase substrate according to the manufacturer's instructions (Pierce Corp., Rockford, Ill.). A reading was performed after 10 to 15 min (excitation 320 nm/emission 420 nm).

P-gp = biological target: T1, P-gp (Homo sapiens, UniProt P08183); experiment: Transepithelial transport of test compounds through LLC-MDR1 monolayers; assay type: in vitro ADME; conditions: for efflux ratio at 120 min, 1 μM / Papp A→B at 120 min, 1 μM / Papp B→A at 120 min, 1 μM: pig, LLC-PK1; for efflux ratio at 120 min, 1 μM: read-out: BA/AB; for Papp A→B at 120 min, 1 μM: read-out: A to B (Apparent Permeability, Papp); for Papp B→A at 120 min, 1 μM: read-out: B to A (Apparent Permeability, Papp); for A to B (Apparent Permeability, Papp) / B to A (Apparent Permeability, Papp): 1 μM test compound, 120 minutes; for A to B (Apparent Permeability, Papp): apical to basolateral, absence of GF120918; for B to A (Apparent Permeability, Papp): basolateral to apical
T1 construct: expressed in transfected cells; host or cells: LLC-PK1 cells stably transduced with MDR1 (LLC-MDR1)
Description: Brief Assay Description for the Measurement of Transepithelial Transport of Test Compounds Through LLC-MDR1 Monolayers
The purpose of this assay was to assess both the in vitro passive permeability of test compounds and their ability to be transported substrates of P-gp using LLC-PK1 cells stably transduced with MDR1 in a trans-well system. The positive control for transport was ^3H-digoxin (30 nM) and the positive control inhibitor was GF120918 (5 μM). The marker compound for low permeability was ^14C-Mannitol (1 μM). The test compound concentration was 1 μM.
The integrity of the cellular monolayer was assessed in each incubation well through the inclusion of the fluorescent, low permeability marker compound, Fluorescein.
In detail, LLC-MDR1 cells were seeded on 24-well cell culture inserts (Millicell®-PCF, 0.4 μm, 13 mm diameter, 0.7 cm^2) at 400,000 cells/cm^2. Cell culture medium consisted of Medium 199 supplemented with 10% Foetal Bovine Serum (FBS) and 100 U/ml Penicillin/streptomycin and was replaced the day after seeding and the day before the experiment. The transport experiment was performed 5 days after seeding. On the day of the experiment, solutions of the test compounds were applied to the apical or basolateral side of the monolayers to assess transport in the A to B and B to A directions, respectively. The medium used in the assay was (OPTI-MEM (1×) (GIBCO) with 1 w/v % Bovine Serum Albumin. Inserts were incubated at 37° C. in a humidified incubator containing 5% CO2. Samples from the acceptor and donor compartments were collected after an incubation time of 120 min, to assess the permeability and to allow estimation of the test compound recovery during the experiment, respectively. Transport experiments were performed in triplicate. Absolute test compound concentrations were measured using LC-MS/MS and quantified via a calibration curve.

[2] = LLC-MDR1 monolayers, ratio of B to A and A to B permeation rates

Sequence of recombinant BACE1 protein (P56817 46-501): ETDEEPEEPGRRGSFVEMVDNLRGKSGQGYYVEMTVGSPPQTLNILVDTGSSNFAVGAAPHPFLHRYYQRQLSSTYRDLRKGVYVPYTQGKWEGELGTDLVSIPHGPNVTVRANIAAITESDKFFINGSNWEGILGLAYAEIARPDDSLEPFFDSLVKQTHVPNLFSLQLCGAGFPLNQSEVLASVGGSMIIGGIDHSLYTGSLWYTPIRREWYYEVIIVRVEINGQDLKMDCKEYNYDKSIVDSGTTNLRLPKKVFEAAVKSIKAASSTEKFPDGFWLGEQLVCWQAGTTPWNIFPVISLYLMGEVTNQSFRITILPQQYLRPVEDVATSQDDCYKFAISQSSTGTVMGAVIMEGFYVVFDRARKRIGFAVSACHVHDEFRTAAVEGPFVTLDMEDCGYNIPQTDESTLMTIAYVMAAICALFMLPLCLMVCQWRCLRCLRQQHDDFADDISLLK
T1 sequence (P08183 whole entry): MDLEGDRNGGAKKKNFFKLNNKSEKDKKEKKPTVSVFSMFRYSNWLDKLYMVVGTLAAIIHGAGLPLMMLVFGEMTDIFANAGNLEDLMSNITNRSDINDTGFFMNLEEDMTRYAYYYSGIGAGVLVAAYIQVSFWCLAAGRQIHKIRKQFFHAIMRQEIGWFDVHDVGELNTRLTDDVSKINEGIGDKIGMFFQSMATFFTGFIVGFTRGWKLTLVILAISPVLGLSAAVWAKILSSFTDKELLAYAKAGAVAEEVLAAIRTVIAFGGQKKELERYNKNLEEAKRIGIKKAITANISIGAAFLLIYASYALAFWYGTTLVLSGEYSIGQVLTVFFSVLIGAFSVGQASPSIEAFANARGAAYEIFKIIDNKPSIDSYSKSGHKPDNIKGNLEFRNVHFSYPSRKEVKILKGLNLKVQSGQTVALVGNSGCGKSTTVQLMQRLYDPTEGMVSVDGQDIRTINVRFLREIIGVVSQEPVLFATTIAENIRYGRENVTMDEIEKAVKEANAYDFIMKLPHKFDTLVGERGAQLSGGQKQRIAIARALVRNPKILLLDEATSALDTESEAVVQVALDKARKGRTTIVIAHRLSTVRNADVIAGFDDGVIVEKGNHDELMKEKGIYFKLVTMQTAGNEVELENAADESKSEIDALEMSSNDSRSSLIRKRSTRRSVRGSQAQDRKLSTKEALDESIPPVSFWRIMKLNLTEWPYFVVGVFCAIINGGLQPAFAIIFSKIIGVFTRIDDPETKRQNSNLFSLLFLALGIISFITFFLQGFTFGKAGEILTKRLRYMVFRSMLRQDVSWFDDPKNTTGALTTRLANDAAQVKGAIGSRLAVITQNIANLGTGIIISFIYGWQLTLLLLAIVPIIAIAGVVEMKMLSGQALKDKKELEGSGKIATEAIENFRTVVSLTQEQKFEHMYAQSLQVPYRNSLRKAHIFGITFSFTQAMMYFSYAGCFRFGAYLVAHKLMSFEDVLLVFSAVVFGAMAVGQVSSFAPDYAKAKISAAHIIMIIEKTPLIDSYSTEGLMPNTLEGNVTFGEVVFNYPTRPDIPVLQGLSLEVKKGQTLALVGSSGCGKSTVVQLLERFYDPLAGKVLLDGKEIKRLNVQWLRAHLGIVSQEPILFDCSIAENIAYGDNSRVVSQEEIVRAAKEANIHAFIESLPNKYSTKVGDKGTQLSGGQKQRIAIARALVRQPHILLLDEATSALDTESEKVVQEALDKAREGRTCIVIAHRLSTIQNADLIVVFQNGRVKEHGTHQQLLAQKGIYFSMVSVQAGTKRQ

| Compound | IC50 [1] | Cellular αLisa assay in SKNBE2 cells Abetatotal pIC50 (Abeta total) | Cellular αLisa assay in SKNBE2 cells Abeta 42 pIC50 (Abeta 1-42) | efflux ratio at 120 min, 1 μM (P-gp; [2]) | Papp A→B at 120 min, 1 μM (P-gp) | Papp B→A at 120 min, 1 μM (P-gp) | melting point | further results |
| --- | --- | --- | --- | --- | --- | --- | --- | --- |
| CC1(c2cccc(-c3cncc(C#N)c3)c2)N=C(N)COC1C(F)(F)F (single isomer, unassigned) [Compound 204] | 363 nM | 7.06 | 7.05 | – | – | – | – | Aβ42 (% Ctrl)_Mean (Aβ42; 30 mpk, s.c., 4 h): 113 % Ctrl; Aβtotal (% Ctrl)_Mean (Aβtotal; 30 mpk, s.c., 4 h): 103 % Ctrl |
| COc1cnc(C(=O)Nc2ccc(F)c([C@@]3(C4CC4)N=C(N)CO[C@H]3F)c2)cn1 [Compound 217] | – | – | – | – | – | – | – | IC50 (Abeta total): 490 nM; IC50 (Abeta 1-42): 525 nM; Aβ42 (% Ctrl)_Mean (Aβ42; 30 mpk, p.o., 2 h): 80 % Ctrl; Aβtotal (% Ctrl)_Mean (Aβtotal; 30 mpk, p.o., 2 h): 73 % Ctrl |
| COc1cncc(-c2cccc(C3(C)N=C(N)COC3F)c2)c1 (single isomer, unassigned) [Compound 93] | 468 nM | 6.97 | 6.98 | 4.6 | 7.4 ×10⁻⁶ cm/s | 34.3 ×10⁻⁶ cm/s | – | – |
| COc1cnc(C(=O)Nc2cccc(C3(C4CC4)N=C(N)COC3C(F)(F)F)c2)cn1 (stereo not drawn) [Compound 228] | – | 7.35 | 7.31 | – | – | – | – | Biochemical FRET based assay pIC50 [1]: 6.67; Aβ42 (% Ctrl)_Mean (Aβ42; 30 mpk, p.o., 2 h): 99 % Ctrl; Aβtotal (% Ctrl)_Mean (Aβtotal; 30 mpk, p.o., 2 h): 79 % Ctrl |
| COc1cncc(-c2cccc(C3(C)COCC(N)=N3)c2)c1 (racemic) [Compound 4, rac-5-[3-(5-methoxypyridin-3-yl)phenyl]-5-methyl-5,6-dihydro-2H-1,4-oxazin-3-amine] | 3640 nM | – | – | 25.9 | – | – | 150 °C | IC50 (Abeta total): 219 nM; IC50 (Abeta 1-42): 257 nM |
| CC1(c2cc(NC(=O)c3ccc(C#N)cn3)ccc2F)N=C(N)COC1F (single isomer, unassigned) [Compound 124] | – | 8.2 | 8.21 | – | – | – | – | Aβ42 (% Ctrl)_Mean (Aβ42; 30 mpk, p.o., 4 h): 23 % Ctrl; Aβtotal (% Ctrl)_Mean (Aβtotal; 30 mpk, p.o., 4 h): 25 % Ctrl |
| COc1cnc(C(=O)Nc2ccc(F)c([C@@]3(C)N=C(N)CO[C@@H]3F)c2)cn1 [Compound 123] | – | – | – | – | – | – | – | IC50 (Abeta total): 10.5 nM; IC50 (Abeta 1-42): 10.7 nM; Aβ42 (% Ctrl)_Mean (Aβ42; 10 mpk, p.o., 4 h): 38 % Ctrl; Aβ42 (% Ctrl)_Mean (Aβ42; 10 mpk, s.c., 4 h): 24 % Ctrl; Aβtotal (% Ctrl)_Mean (Aβtotal; 10 mpk, p.o., 4 h): 38 % Ctrl; Aβtotal (% Ctrl)_Mean (Aβtotal; 10 mpk, s.c., 4 h): 21 % Ctrl |
| COc1cncc(-c2cccc(C3(C)N=C(N)COC3F)c2)c1 (stereo not drawn) [Compound 100] | 1550 nM | – | – | 3.6 | 7.6 ×10⁻⁶ cm/s | 27.4 ×10⁻⁶ cm/s | 139.2 °C | IC50 (Abeta total): 339 nM; IC50 (Abeta 1-42): 347 nM |
| COc1cncc(-c2cccc(C3(C)N=C(N)COC3(F)C(F)(F)F)c2)c1 (single isomer, unassigned) [Compound 118] | 191 nM | 7.18 | 7.23 | 1.3 | 12 ×10⁻⁶ cm/s | 15 ×10⁻⁶ cm/s | – | – |
| CC1(c2cc(-c3cncnc3)ccc2F)N=C(N)COC1C(F)(F)F (single isomer, unassigned) [Compound 106] | 4370 nM | 6.23 | 6.2 | 1.1 | 18.2 ×10⁻⁶ cm/s | 19.8 ×10⁻⁶ cm/s | 173.8 °C | – |
| C[C@@]1(c2cc(NC(=O)c3ccc(C#N)cn3)ccc2F)COCC(N)=N1 [Compound 43] | – | 8.45 | 8.34 | – | – | – | – | Biochemical FRET based assay pIC50 [1]: 7.14; A to B (Apparent Permeability, Papp) (P-gp; LLC-MDR1 monolayers): 1.4 ×10⁻⁶ cm/s; B to A (Apparent Permeability, Papp) (P-gp; LLC-MDR1 monolayers): 26.6 ×10⁻⁶ cm/s; BA/AB (P-gp; [2]): 18.5 |
| COc1cnc(C(=O)Nc2ccc(F)c([C@]3(C)COCC(N)=N3)c2)cn1 [Compound 39] | – | 8.38 | 8.27 | – | – | – | – | A to B (Apparent Permeability, Papp) (P-gp; LLC-MDR1 monolayers): 3.7 ×10⁻⁶ cm/s; B to A (Apparent Permeability, Papp) (P-gp; LLC-MDR1 monolayers): 34.2 ×10⁻⁶ cm/s |
| CC1(c2cc(-c3cncnc3)ccc2F)N=C(N)COC1F (single isomer, unassigned) [Compound 75] | 9770 nM | 5.46 | 5.46 | – | – | – | 227.7 °C | – |
| CC1(c2cccc(-c3cncnc3)c2)N=C(N)COC1F (stereo not drawn) [Compound 99] | 20900 nM | 5.73 | 5.87 | – | – | – | 204.3 °C | – |
| CC1(c2cccc(NC(=O)c3ccc(Cl)cn3)c2)N=C(N)COC1(F)C(F)(F)F (single isomer, unassigned) [Compound 113] | – | 7.52 | 7.53 | – | 9 ×10⁻⁶ cm/s | 9.8 ×10⁻⁶ cm/s | – | – |
| CC1(c2cccc(NC(=O)c3ccncn3)c2)N=C(N)COC1(F)C(F)(F)F (single isomer, unassigned) [Compound 187] | 10200 nM | 5.95 | 5.92 | – | – | – | 189.64 °C | – |
